This note sets out measurements from patent US11779597B2, “Method of treating Parkinson's and other neurodegenerative diseases” (Vector Vitale IP LLC, priority 2019, dated 2023).

Assay [1] relates to rat peripheral blood monocytes. Description: Metabolic profile of nonsensitized rat peripheral blood monocytes in vitro. The assay is classed as cell-based. The method, then:
(§1) Materials and methods: Rat microglial cells were isolated by mechanical (cell sieves) disintegration of the brain tissue (FIG. 30A, FIG. 30B and FIG. 30C) followed by fractionation of the tissue homogenate in Percoll density gradient (Microglia: Methods and Protocols, Edited by Bertrand Josef and Jose Luis Venero, Springer protocol. Humana Press, 2013, 350 p.) (FIG. 31). Before the collection of the brain tissue, decapitation was performed to avoid hemorrhage to the brain during sampling (FIG. 32). Decapitation was performed immediately after anesthesia to minimize the death of brain tissue, including microglial cells. All manipulations for the isolation of microglial cells were carried out using coolants. Circulating neutrophils were isolated from venous blood taken into a tube containing EDTA in a two-step Percoll gradient (Alsharif K F et al. Vascul Pharmacol. 2015 August; 71:201-7. doi: 10.1016/j.vph.2015.02.006)(FIG. 33A and FIG. 33B). Circulating monocytes were isolated from venous blood collected into a tube containing heparin in a two-step Hypaque gradient (Macrophages and dendritic cells: Methods and Protocols, Edited by Neil E. Reiner, NY, Humana Press, 2009: 368 P). The metabolic profile of phagocytes was characterized based on the pathway of arginine metabolism (levels of arginase activity and NO synthesis measured using photocolorimetric methods), the level of formation of intracellular reactive oxygen species (ROS) by esterases and the indices of phagocytic activity determined by flow cytofluorimetry, as well as according to the activation levels of NADH and NADPH oxidases determined in NBT test. Duration of treatment of phagocytes of all the above mentioned populations varied depending on the methodological characteristics of metabolic response. A 90 minute exposure to the drugs according to Kim et al., 1977 (cited above) was used to analyze their effects on oxidative metabolism and phagocytic activity. An 18 hour exposure according to Lastra et al., 2001 (cited above) was used to analyze the drug effects on arginine metabolic pathway. To analyze the effects of the drugs under study on the induced (stimulated) metabolic activity of phagocytes, the cells were treated with lipopolysaccharide (LPS) from E. coli (Sigma, USA) according to Haddad et al., 2009 (cited above).

The subject of assay [2] is circulating phagocytes (monocytes and neutrophils). Description: Hemogram and functional profile of circulating phagocytes in 6-OHDA rat models after prophylactic administration. Type of assay: in vivo. The note with it: prophylactic i.p. The method, then: Methods: Adult mature rodents were used in the study. […] Before prophylactic administration of the experimental drugs, the animals underwent an open field test to assay their general locomotor activity levels and anxiety. The prophylactic course consisted of 10 daily intraperitoneal injections of the drugs (in the case of combination drug, its components were administered at an interval of 2 hours). After the end of prophylactic course, Parkinson's disease was modelled in the animals. […] Ten days after the last (second) apomorphine test, the animals' behavioral responses were assessed in the open field test followed by euthanasia and analysis of functional (metabolic and phenotypic) profiles of phagocytes of different localization. Thus, the study of the functional profile of phagocytes in rat models of Parkinson's disease was performed on day 28 after the end of the course of prophylactic treatment with the experimental drugs. […] Functional characteristics of circulating phagocytes (monocytes and neutrophils) were evaluated in whole blood taken into a tube containing EDTA used as an anticoagulant. Mononuclear and polymorphonuclear phagocytes were analyzed on a flow cytofluorimeter using a gating method. […] The hemogram parameters were analyzed on the hematological analyzer Particle counter model PCE 210 (ERMA, Japan) adapted for the study of blood cells of rats and mice.

In assay [3] the test system is rat microglial cells. Description: Metabolic profile of nonsensitized rat microglial cells in vitro. Type of assay: cell-based. The method, then: as §1
[4] abbreviates: regardless of the concentration, in vitro.

Turning to “^64Zn-enriched zinc aspartate [^64Zne-asp]”, in assay [1], the “LPS-stimulated oxidase-dependent respiratory burst of monocytes” value is on record as “no effect”, the “production of nitric oxide by monocytes treated with LPS” value is recorded as “moderately increased” and the “spontaneous esterase-dependent intracellular ROS production by monocytes” value is “decrease”. Further, in assay [1] (10 μg/ml), the “intracellular ROS production by bacterial LPS-treated monocytes” value is on record as “statistically significantly reduced”; the “spontaneous oxidative metabolism dependent on NADH and NADPH oxidases (NBT test) in monocytes” value is “slightly increased”. Besides, the “phagocytic activity of monocytes” value in assay [1] (concentrations ≤5 μg/ml) was “reduced”. In assay [1] (regardless of the concentration), the “spontaneous production of nitrites by nonsensitized circulating monocytes” value is listed as “did not change significantly”. In addition, the “arginase activity of monocytes” value in assay [1] (resting cells and bacterial LPS-treated cells) is recorded as “absent”. In assay [2], the “oxidative metabolism in circulating neutrophils” value is reported as “absence of any disturbances” and the “phagocytic activity of circulating monocytes” value was “did not differ from that of intact animals”. In assay [3] (2.5 μg/ml), the “arginase activity of microglial cells on the background of LPS treatment” value was “moderately strengthened”. Further, the “LPS-stimulated activity of NO synthase (synthesis of nitrites) in microglial cells” value in assay [3] (10 μg/ml) was “decreased”. For the same substance, in assay [3] (20 and 5 μg/ml), the “ROS production stimulated by LPS in microglial cells” value is given as “significantly inhibited”. Further, the “spontaneous esterase-dependent oxidative metabolism (intracellular ROS) in microglial cells” value in assay [3] (20 and 10 μg/ml) is recorded as “stimulated”. In assay [3] (all concentrations studied), the “number of phagocytic cells in the microglial population” value is reported as “without affecting” and the “phagocytic activity of microglial cells” value was “moderately increased”. Besides, the “spontaneous esterase-dependent oxidative metabolism (intracellular ROS) in microglial cells” value in assay [3] (concentrations ≤5 μg/ml) is “no statistically significant effect”. Moreover, the “ROS production stimulated by LPS in microglial cells” value in assay [3] (other concentrations) is listed as “did not have any effect”. Besides, in assay [3] (setting [4]), the “spontaneous arginase activity of nonsensitized microglial cells” value is “virtually no effect” and the “spontaneous nitric oxide production by nonsensitized microglial cells” value is reported as “reduced”.
